Measured values published in PubChem BioAssay (NCI).
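Cells were grown in 96-well plates and exposed to each compound for 48 hours at five concentrations; endpoints were interpolated linearly between bracketing concentrations, or set to the highest concentration if not reached. TGI: concentration producing complete growth inhibition.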

How the values were obtained:
Experiment in all cases: growth of human tumour cells (NCI), 48 h
[1] = tested on: PC-3 prostate
[2] = tested on: MDA-MB-231 breast
[3] = tested on: SF-295 CNS
[4] = tested on: U251 CNS
[5] = tested on: OVCAR-5 ovarian
[6] = tested on: SW-620 colon
[7] = tested on: HT29 colon
[8] = tested on: COLO 205 colon
[9] = tested on: A549 NSCLC
[10] = tested on: SK-MEL-28 melanoma
[11] = tested on: CAKI-1 renal

Structure (SMILES) | TGI [1] | TGI [2] | TGI [3] | TGI [4] | TGI [5] | TGI [6] | TGI [7] | TGI [8] | TGI [9] | TGI [10] | TGI [11]
O=c1c2cc(I)ccc2[nH]c(=S)n1Cc1ccccc1 | > 100 µM | 66.3 µM | > 100 µM | > 100 µM | > 100 µM | > 100 µM | > 100 µM | > 100 µM | > 100 µM | > 100 µM | –
CC(=O)/C(=C/n1c(=S)sc2ccccc21)C(=O)Nc1ccccc1C | – | > 100 µM | > 100 µM | > 100 µM | > 100 µM | > 100 µM | > 100 µM | > 100 µM | > 100 µM | > 100 µM | > 100 µM
O=C1CC(c2ccc([N+](=O)[O-])cc2)C2(C(=O)NC(=S)NC2=O)C(c2ccc([N+](=O)[O-])cc2)C1 (stereo not drawn) | > 100 µM | 37.3 µM | 60.1 µM | 37 µM | 87.4 µM | > 100 µM | > 100 µM | > 100 µM | 50.4 µM | > 100 µM | –
CN1CCN(C(=S)N(C)C(=O)c2ccc(Cl)cc2)CC1 | – | > 100 µM | > 100 µM | > 100 µM | > 100 µM | > 100 µM | > 100 µM | > 100 µM | > 100 µM | > 100 µM | –
COC1C=CC23c4cc5c(cc4C(O)OC2CN(C)C3C1)OCO5 (stereo not drawn) | – | – | 9.59 µM | – | 39.9 µM | 11.6 µM | – | 2.99 µM | 9.49 µM | – | 24.8 µM
CC(C)=CC1C(C(=O)O)C1(C)C (stereo not drawn) | – | – | > 750 µM | > 750 µM | > 750 µM | > 750 µM | > 750 µM | > 750 µM | > 750 µM | > 750 µM | > 750 µM
CC(=O)CC(=O)c1cc2c(=O)oc(C)cc2oc1=O | > 37.5 µM | – | > 37.5 µM | > 37.5 µM | > 37.5 µM | > 37.5 µM | > 37.5 µM | > 37.5 µM | > 37.5 µM | > 37.5 µM | > 37.5 µM
Cc1oc2nc(N(C)C)n3nnnc3c2c1C | – | > 100 µM | > 100 µM | > 100 µM | > 100 µM | > 100 µM | > 100 µM | > 100 µM | > 100 µM | > 100 µM | > 100 µM
O=C(OCc1ccccc1)OOC(=O)OCc1ccccc1 | – | – | > 100 µM | > 100 µM | > 100 µM | > 100 µM | > 100 µM | > 100 µM | > 100 µM | > 100 µM | > 100 µM
